In patent US6914045B2, “Glycopeptide antibiotics” (Wyeth Holdings Corporation, priority 2001, dated 2005):
Converted amounts (≈) assume the structure as drawn.

Experiments:
Test in all cases: in vitro antibacterial evaluation, MIC by broth dilution
Assay type in all cases: cell-based
Enterococcus sp. = details: broth dilution, 18 hours at 35° C.
Outline: (§1)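 MIC = lowest antibiotic concentration preventing visible growth; inoculum 5×10^5 CFU/mL; drug range 64-0.06 μg/mL; Muller-Hinton II […]; NCCLS M7-A2 guidance.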

Staphylococcus sp. = details: broth dilution, 18 hours at 35° C.
Outline: as §1

Streptococcus sp. = details: broth dilution, 18 hours at 35° C.
Outline: as §1

Escherichia coli = details: 18 hours at 35° C.

COc1ccc(COCC2OC(OC3C(CO)OC(Oc4ccc(CC5NC(=O)C(C(C)c6ccccc6)NC(=O)CNC(=O)C(CO)NC(=O)C(C(O)C6CNC(=N)N6C6OC(CO)C(O)C(O)C6O)NC(=O)C(C(O)C6CNC(=N)N6)NC5=O)cc4)C(O)C3O)C(O)C(O)C2O)c2ccccc12 (stereo not shown) [Example 240]
MIC Enterococcus avium (GC 4558) (Enterococcus sp.): 4 µg/mL (≈ 2.73 µM) | MIC Enterococcus faecalis (ATCC 29212) (Enterococcus sp.): 16 µg/mL (≈ 10.9 µM) | MIC Enterococcus faecalis (GC 2242) (Enterococcus sp.): 16 µg/mL (≈ 10.9 µM) | MIC Enterococcus faecalis (GC 2691) (Enterococcus sp.): 8 µg/mL (≈ 5.46 µM) | MIC Enterococcus faecalis (GC 3059) (Enterococcus sp.): 8 µg/mL (≈ 5.46 µM) | MIC Enterococcus faecalis (GC 4552) (Enterococcus sp.): 16 µg/mL (≈ 10.9 µM) | MIC Enterococcus faecalis (GC 4553) (Enterococcus sp.): 16 µg/mL (≈ 10.9 µM) | MIC Enterococcus faecalis (GC 4554) (Enterococcus sp.): 16 µg/mL (≈ 10.9 µM) | MIC Enterococcus faecalis (GC 6189) (Enterococcus sp.): 8 µg/mL (≈ 5.46 µM) | MIC Enterococcus faecium (GC 2243) (Enterococcus sp.): 16 µg/mL (≈ 10.9 µM) | MIC Enterococcus faecium (GC 4556) (Enterococcus sp.): 16 µg/mL (≈ 10.9 µM) | MIC Enterococcus faecium (GC 4557) (Enterococcus sp.): 2 µg/mL (≈ 1.36 µM) | MIC Enterococcus faecalis (ATCC 29212) (Enterococcus sp.; strain ATCC 29212): 16 µg/mL (≈ 10.9 µM) | MIC Enterococcus faecium (GC 2243) (Enterococcus sp.; strain GC 2243): 16 µg/mL (≈ 10.9 µM) | MIC Enterococcus faecalis (GC 4552) (Enterococcus sp.; strain GC 4552): 16 µg/mL (≈ 10.9 µM) | MIC Enterococcus faecalis (GC 4553) (Enterococcus sp.; strain GC 4553): 16 µg/mL (≈ 10.9 µM) | MIC Enterococcus faecalis (GC 4554) (Enterococcus sp.; strain GC 4554): 16 µg/mL (≈ 10.9 µM) | MIC Enterococcus faecium (GC 4556) (Enterococcus sp.; strain GC 4556): 16 µg/mL (≈ 10.9 µM) | MIC Enterococcus faecium (GC 4557) (Enterococcus sp.; strain GC 4557): 2 µg/mL (≈ 1.36 µM) | MIC Enterococcus avium (GC 4558) (Enterococcus sp.; strain GC 4558): 4 µg/mL (≈ 2.73 µM) | MIC Enterococcus faecalis (GC 6189) (Enterococcus sp.; strain GC 6189): 8 µg/mL (≈ 5.46 µM) | MIC Enterococcus faecalis (GC 2242) (Enterococcus sp.; inoculum 5×10^5 CFU/mL, strain GC 2242): 16 µg/mL (≈ 10.9 µM) | MIC Enterococcus faecalis (GC 2691) (Enterococcus sp.; inoculum 5×10^5 CFU/mL, strain GC 2691): 8 µg/mL (≈ 5.46 µM) | MIC Enterococcus faecalis (GC 3059) (Enterococcus sp.; inoculum 5×10^5 CFU/mL, strain GC 3059): 8 µg/mL (≈ 5.46 µM) | MIC Coagulase Negative Staphylococcus (GC 4547) (Staphylococcus sp.): 4 µg/mL (≈ 2.73 µM) | MIC Coagulase Negative Staphylococcus (GC 4548) (Staphylococcus sp.): 2 µg/mL (≈ 1.36 µM) | MIC Coagulase Negative Staphylococcus (GC 4549) (Staphylococcus sp.): 2 µg/mL (≈ 1.36 µM) | MIC Coagulase Negative Staphylococcus (GC 4551) (Staphylococcus sp.): 2 µg/mL (≈ 1.36 µM) | MIC Coagulase Negative Staphylococcus (GC 6257) (Staphylococcus sp.): 2 µg/mL (≈ 1.36 µM) | MIC Staphylococcus aureus (ATCC 29213) (Staphylococcus sp.): 4 µg/mL (≈ 2.73 µM) | MIC Staphylococcus aureus (GC 1131) (Staphylococcus sp.): 4 µg/mL (≈ 2.73 µM) | MIC Staphylococcus aureus (GC 3051) (Staphylococcus sp.): 0.5 µg/mL (≈ 0.341 µM) | MIC Staphylococcus aureus (GC 3053) (Staphylococcus sp.): 4 µg/mL (≈ 2.73 µM) | MIC Staphylococcus aureus (GC 4541) (Staphylococcus sp.): 1 µg/mL (≈ 0.682 µM) | MIC Staphylococcus aureus (GC 4542) (Staphylococcus sp.): 2 µg/mL (≈ 1.36 µM) | MIC Staphylococcus aureus (GC 4544) (Staphylococcus sp.): 4 µg/mL (≈ 2.73 µM) | MIC Staphylococcus aureus (GC 4545) (Staphylococcus sp.): 4 µg/mL (≈ 2.73 µM) | MIC Staphylococcus aureus-SMITH (GC 4543) (Staphylococcus sp.): 2 µg/mL (≈ 1.36 µM) | MIC Staphylococcus haemolyticus (GC 4546) (Staphylococcus sp.): 2 µg/mL (≈ 1.36 µM) | MIC Staphylococcus aureus (ATCC 29213) (Staphylococcus sp.; strain ATCC 29213): 4 µg/mL (≈ 2.73 µM) | MIC Staphylococcus aureus (GC 1131) (Staphylococcus sp.; strain GC 1131): 4 µg/mL (≈ 2.73 µM) | MIC Staphylococcus aureus (GC 3051) (Staphylococcus sp.; strain GC 3051): 0.5 µg/mL (≈ 0.341 µM) | MIC Staphylococcus aureus (GC 3053) (Staphylococcus sp.; strain GC 3053): 4 µg/mL (≈ 2.73 µM) | MIC Staphylococcus aureus (GC 4541) (Staphylococcus sp.; strain GC 4541): 1 µg/mL (≈ 0.682 µM) | MIC Staphylococcus aureus (GC 4542) (Staphylococcus sp.; strain GC 4542): 2 µg/mL (≈ 1.36 µM) | MIC Staphylococcus aureus-SMITH (GC 4543) (Staphylococcus sp.; strain GC 4543): 2 µg/mL (≈ 1.36 µM) | MIC Staphylococcus aureus (GC 4544) (Staphylococcus sp.; strain GC 4544): 4 µg/mL (≈ 2.73 µM) | MIC Staphylococcus aureus (GC 4545) (Staphylococcus sp.; strain GC 4545): 4 µg/mL (≈ 2.73 µM) | MIC Staphylococcus haemolyticus (GC 4546) (Staphylococcus sp.; strain GC 4546): 2 µg/mL (≈ 1.36 µM) | MIC Coagulase Negative Staphylococcus (GC 4547) (Staphylococcus sp.; strain GC 4547): 4 µg/mL (≈ 2.73 µM) | MIC Coagulase Negative Staphylococcus (GC 4548) (Staphylococcus sp.; strain GC 4548): 2 µg/mL (≈ 1.36 µM) | MIC Coagulase Negative Staphylococcus (GC 4549) (Staphylococcus sp.; strain GC 4549): 2 µg/mL (≈ 1.36 µM) | MIC Coagulase Negative Staphylococcus (GC 4551) (Staphylococcus sp.; strain GC 4551): 2 µg/mL (≈ 1.36 µM) | MIC Coagulase Negative Staphylococcus (GC 6257) (Staphylococcus sp.; strain GC 6257): 2 µg/mL (≈ 1.36 µM) | MIC Streptococcus agalactiae (GC 4564) (Streptococcus sp.): 0.5 µg/mL (≈ 0.341 µM) | MIC Streptococcus pneumoniae (ATCC 6301) (Streptococcus sp.): <0.12 µg/mL | MIC Streptococcus pneumoniae (GC 1894) (Streptococcus sp.): <0.12 µg/mL | MIC Streptococcus pneumoniae (GC 4565) (Streptococcus sp.): 0.25 µg/mL (≈ 0.171 µM) | MIC Streptococcus pyogenes (GC 4563) (Streptococcus sp.): 0.5 µg/mL (≈ 0.341 µM) | MIC Streptococcus pneumoniae (ATCC 6301) (Streptococcus sp.; inoculum 5×10^5 CFU/mL, strain ATCC 6301): <0.12 µg/mL | MIC Streptococcus pneumoniae (GC 1894) (Streptococcus sp.; inoculum 5×10^5 CFU/mL, strain GC 1894): <0.12 µg/mL | MIC Streptococcus pyogenes (GC 4563) (Streptococcus sp.; inoculum 5×10^5 CFU/mL, strain GC 4563): 0.5 µg/mL (≈ 0.341 µM) | MIC Streptococcus agalactiae (GC 4564) (Streptococcus sp.; inoculum 5×10^5 CFU/mL, strain GC 4564): 0.5 µg/mL (≈ 0.341 µM) | MIC Streptococcus pneumoniae (GC 4565) (Streptococcus sp.; inoculum 5×10^5 CFU/mL, strain GC 4565): 0.25 µg/mL (≈ 0.171 µM) | MIC Escherichia coli (ATCC 25922) (Escherichia coli): 128 µg/mL (≈ 87.3 µM) | MIC Escherichia coli (GC 4559) (Escherichia coli): >128 µg/mL | MIC Escherichia coli (GC 4560) (Escherichia coli): 2 µg/mL (≈ 1.36 µM)
